From ChEMBL document CHEMBL1857833, “Screening and optimization of specific chemical series against human African Trypanosomiasis (HAT)” come the findings set out here.

One series relates to Trypanosoma brucei. Description: DNDI: Inhibition of Human African Trypanosomiasis, SBRI 427, in vitro. The format is functional, organism-based. The settings on record: Trypanosoma brucei, SBRI 427; read-out: IC50.
A short description of series [1]: DNDI: Cytotoxicity against L929 mouse fibroblasts, 72 hour. The format is toxicity, cell-based. The settings on record: mouse, L929 mouse fibroblasts.
Series [2] can be described thus: DNDI: Cytotoxicity against L929 mouse fibroblasts, CYTO-SP, 24 hour. The settings on record: mouse, L929 mouse fibroblasts. The format is toxicity, cell-based.

For orientation: IC50 means the concentration needed to halve the response being measured.

The structures appear in SMILES notation. Values after ≈ are worked out from the molar mass of the structure shown.

For `O=c1cc(-c2ccccc2)[nH]c2cc(-c3ccc(F)cc3)nn12`, the IC50 in the series on Trypanosoma brucei was more than 5 µg/mL. The compound also yielded an IC50 at 72 h in series [1] of 10 µg/mL (≈ 32.8 µM). For `CN(C)CCCNc1cc(-c2ccccc2)nc2cc(-c3cccc(F)c3)nn12`, the IC50 in the series with Trypanosoma brucei was found to be 1.13 µg/mL (≈ 2.9 µM). In series [1], this compound returned an IC50 at 72 h of 2.28 µg/mL (≈ 5.85 µM). The matching figures for `Cc1cc2[nH]c(-c3ccccc3)cc(=O)n2n1`: more than 5 µg/mL and more than 10 µg/mL. As to `CC(C)(C)OC(=O)N1CCC(Nc2cc(-c3ccccc3)nc3cc(-c4ccc(F)cc4)nn23)CC1`, in the series on Trypanosoma brucei, the IC50 was more than 5 µg/mL. The IC50 at 72 h in series [1] is more than 10 µg/mL. `COc1cc(C)ccc1Oc1nc(C)ccc1/C(=N/O)NCC1CC1` showed an IC50 at 24 h in series [2] of more than 50 µg/mL. As for `CCN(CC)CCCNc1cc(C)nc2cc(-c3cccc(F)c3)nn12`, the IC50 with Trypanosoma brucei is more than 5 µg/mL. For the same compound, in series [1], the IC50 at 72 h was more than 10 µg/mL. For `Fc1ccc(Oc2nc(Cl)nc3ccsc23)cc1`, the IC50 in the series on Trypanosoma brucei is more than 5 µg/mL. This compound returned an IC50 at 72 h in series [1] of more than 10 µg/mL.

For the compound `Cc1ccc(/C(=N/O)NCC(C)(C)C)c(Oc2ccc3ccccc3c2)n1`, the IC50 at 24 h in series [2] was determined as 34 µg/mL (≈ 93.5 µM). Compound `CC1CCC(N/C(=N\O)c2cccnc2Oc2ccc(F)cc2Cl)CC1` (stereo not drawn) registered an IC50 at 24 h in series [2] of 28 µg/mL (≈ 74.1 µM). With `Fc1ccc(-c2cc3nc(-c4ccccc4)cc(NCCCn4ccnc4)n3n2)cc1`, in the series with Trypanosoma brucei, the IC50 was found to be 4.04 µg/mL (≈ 9.79 µM). The midpoint of inhibition in series [1], the IC50 at 72 h, lay at 7.66 µg/mL (≈ 18.6 µM). The matching figures for `CC(C)(C)OC(=O)N1CCN(c2cc(-c3ccccc3)nc3cc(-c4ccc(F)cc4)nn23)CC1`: more than 5 µg/mL and more than 10 µg/mL. The compound `CCC(CC)N/C(=N\O)c1ccc(C)nc1Oc1ccc(C)cc1OC` came in with an IC50 at 24 h in series [2] of more than 50 µg/mL. `CCO/N=C/c1ccccc1-c1ccccc1` had an IC50 at 24 h in series [2] of more than 50 µg/mL. Also, the IC50 in the series with Trypanosoma brucei is more than 5 µg/mL.

In series [2], `COc1ccc(/C=N/Oc2ccccc2)cc1` gave an IC50 at 24 h of more than 50 µg/mL. The IC50 in the series with Trypanosoma brucei is more than 5 µg/mL.

With `Fc1cccc(-c2cc3nc(-c4ccccc4)cc(NCCCn4ccnc4)n3n2)c1`, the IC50 in the series on Trypanosoma brucei came to 4.3 µg/mL (≈ 10.4 µM). The same compound registered a 50% inhibitory concentration (IC50) at 72 h in series [1] of 5.91 µg/mL (≈ 14.3 µM).

Take `NCCCNc1cc(-c2ccccc2)nc2cc(-c3ccc(F)cc3)nn12`: the IC50 in the series on Trypanosoma brucei amounted to 0.554 µg/mL (≈ 1.53 µM). The compound further yielded an IC50 at 72 h in series [1] of 0.76 µg/mL (≈ 2.1 µM).

Take `Cc1cc(NCCN2CCCC2)n2nc(-c3cccc(F)c3)cc2n1`: the IC50 in the series with Trypanosoma brucei was more than 5 µg/mL. The compound also registered a concentration for half-maximal inhibition (IC50) at 72 h in series [1] of more than 10 µg/mL. Regarding `C(=N\OCc1ccccc1)/c1ccccc1-c1ccccc1`, in series [2], the IC50 at 24 h is more than 50 µg/mL. Further, the IC50 with Trypanosoma brucei was more than 5 µg/mL. On to `COc1ccccc1Oc1ncccc1/C(=N/O)NC1CCCC1`, for which the IC50 at 24 h in series [2] was more than 50 µg/mL. As for `CCCCCC(C)NCc1coc(-c2ccc3c(c2)OCO3)n1` (stereo not drawn), the IC50 in the series with Trypanosoma brucei amounted to 3.61 µg/mL (≈ 11.4 µM). In addition, the IC50 at 72 h in series [1] was determined as 10 µg/mL (≈ 31.6 µM). The matching figures for `Cc1cc(NCC(C)(C)CN(C)C)n2nc(-c3cccc(F)c3)cc2n1`: more than 5 µg/mL and 9.64 µg/mL (≈ 27.1 µM). `CCOc1ccccc1CN/C(=N\O)c1cccnc1Oc1ccccc1SC`: the IC50 at 24 h in series [2] was more than 50 µg/mL.

In series [2], `CO/N=C/c1ccc(OC)cc1` returned an IC50 at 24 h of more than 50 µg/mL. In addition, the IC50 with Trypanosoma brucei is more than 5 µg/mL. On to `CCCCCCC/C(O)=C1\C(=O)NC(CC(C)C)C1=O` (stereo not drawn), for which the IC50 in the series with Trypanosoma brucei was more than 5 µg/mL. Further, the IC50 at 72 h in series [1] was more than 10 µg/mL.

Consider `Cc1cc(NCCN2CCOCC2)n2nc(-c3cccc(F)c3)cc2n1`, for which the IC50 in the series on Trypanosoma brucei was more than 5 µg/mL. In addition, the IC50 at 72 h in series [1] was more than 10 µg/mL. For `O=C1CCCN1CCCNc1cc(-c2ccccc2)nc2cc(-c3cccc(F)c3)nn12`, in that order: more than 5 µg/mL and more than 10 µg/mL. The matching figures for `Cc1cc(NCCCN(C)C)n2nc(-c3cccc(F)c3)cc2n1`: more than 5 µg/mL and more than 10 µg/mL. For `C[N+]1(C)CCN(c2cc(-c3ccccc3)nc3cc(-c4ccc(F)cc4)nn23)CC1`, in that order: more than 5 µg/mL and more than 10 µg/mL. Consider `Cc1cc(NCCCN2CCCC2)n2nc(-c3cccc(F)c3)cc2n1`, for which the IC50 with Trypanosoma brucei was more than 5 µg/mL. In series [1], this compound showed an IC50 at 72 h of more than 10 µg/mL.

In turn, `C=CCO/N=C/c1ccc(OC)cc1` showed an IC50 at 24 h in series [2] of more than 50 µg/mL. Further, the IC50 in the series on Trypanosoma brucei is more than 5 µg/mL. In the case of `CCCCCCC/C(O)=C1/C(=O)CN(C)C1=O`, the IC50 with Trypanosoma brucei is more than 5 µg/mL. Moreover, the IC50 at 72 h in series [1] was more than 10 µg/mL. On to `CC(C)(C)COc1ncccc1/C(=N/O)N1CCCc2ccccc21`, for which, in series [2], the IC50 at 24 h amounted to 26 µg/mL (≈ 76.6 µM). Turning to `COC(=O)c1sccc1NC(N)=O`, the IC50 in the series on Trypanosoma brucei is more than 5 µg/mL. Further, the IC50 at 72 h in series [1] was more than 10 µg/mL. With `Cc1cc(NCCN2CCCCC2)n2nc(-c3cccc(F)c3)cc2n1`, the IC50 in the series on Trypanosoma brucei was more than 5 µg/mL. In addition, the IC50 at 72 h in series [1] is more than 10 µg/mL.

With `Cc1ccc(/C(=N/O)NCC(C)(C)C)c(Oc2cc(Cl)ccc2Cl)n1`, the IC50 at 24 h in series [2] is 27 µg/mL (≈ 70.6 µM). As for `O=c1[nH]c(=O)c2sccc2[nH]1`, the IC50 in the series with Trypanosoma brucei is more than 5 µg/mL. Besides, in series [1], the IC50 at 72 h is more than 10 µg/mL.

For `Clc1nc(Oc2cccc3ccccc23)c2sccc2n1`, in the series on Trypanosoma brucei, the IC50 was more than 5 µg/mL. This compound came in with an IC50 at 72 h in series [1] of 2.52 µg/mL (≈ 8.06 µM). With `CN(C)CCCNc1cc(-c2ccccc2)nc2cc(-c3ccc(F)cc3)nn12`, the IC50 in the series with Trypanosoma brucei was 1.1 µg/mL (≈ 2.82 µM). For the same compound, the IC50 at 72 h in series [1] was 2.57 µg/mL (≈ 6.6 µM).
